The values below come from patent US20050130893A1, “Use of opioids in prevention of and recovery from a stress-induced crash in blood pressure” (priority 2003, published 2005).

For one data set, the system named is hemorrhagic shock. The note with it: cited from earlier work.
The test system of another data set is UbC. Kind of data set: Northern blot of UbC mRNA in tissues after heat shock with opioid pretreatment. Format: in vivo, rat. Particulars: heat shock 1 h 44° C. The method, then:
(§1) Experiments were undertaken to study the molecular stress response after heat stress with and without opiate pretreatment in rats. Since it is know that both behavior and pain response to opiates are gender-dependent, both male and female rats were used. The animals were treated by exposure to dry heat at a colonic temperature of 44° C. The animals were sacrificed and brain, leg and heart tissue was removed. The molecular stress responses chosen were HSP 70 and ubiquitin. HSP 70 is a chaperone protein which helps repair damaged proteins, and UbB and UbC forms of ubiquitin are induced by cell damage. Messenger RNA was extracted and analyzed using Northern Blot determination of transcript intensity in saline heat shock controls versus pretreatment with DADLE, a non-specific delta opioid agonist, and deltorphin D.
(§2) The subjects were male and female Charles River rats. The rats were divided by sex and by treatment groups. There were four treatment groups: control saline treatment, heat shock-saline treatment, heat shock-DADLE treatment, and heat shock-deltorphin-D treatment. The rats underwent a three-day protocol, receiving injections each day and on the final day undergoing heat shock. The final treatment was given on day three of the experiment, 20 minutes before heat shock. Treatment consisted of intravenous tail injections at 1 mg/kg body weight for all groups. Heat shock was initiated by 1 hour exposure in an incubator at 44° C. The rats were sacrificed 2 hours later and alteration of molecular responses monitored by gel electrophoresis of RNA using Northern blots. DNA sequences for the molecular markers HSP70 and ubiquitin were used to probe the blots. The probes were radioactively labeled with p^32 to label the probe. When the probe “finds” its complementary sequence, it binds to it and the intensity of the signal which results is determined using Molecular Analyst software of the signals on X-ray film. The intensity of the black areas on the film is a measure of gene activity altered by treatment with the respective opioids.

The subject of another data set is HSP 70 and ubiquitin. Kind of data set: Molecular stress response (HSP 70 and ubiquitin) after heat stress, overall. The data set is classed as in vivo, rat. The note with it: pretreatment before heat shock; drug-unique patterns. The method, then: as §1
The subjects were male and female Charles River rats. The rats were divided by sex and by treatment groups. […] The rats were sacrificed 2 hours later and alteration of molecular responses monitored by gel electrophoresis of RNA using Northern blots. […] When the probe “finds” its complementary sequence, it binds to it and the intensity of the signal which results is determined using Molecular Analyst software of the signals on X-ray film. […]

The subject of the next data set is UbB. Nature of the data set: Northern blot of UbB mRNA in tissues after heat shock with opioid pretreatment. The data set is classed as in vivo, rat. The note with it: heat shock 1 h 44° C. Here is the method:
as §1, §2

Another data set concerns HSP70. Kind of data set: Northern blot of HSP70 mRNA in tissues after heat shock with opioid pretreatment. Format: in vivo, rat. Particulars: heat shock 1 h 44° C. Here is the method:
as §1, §2

Another data set has as its system heat shock. Nature of the data set: Heat shock by 1 hour exposure in incubator at 44° C, sensitivity to heat. Format: in vivo, rat. The note with it: for Sensitization to heat: male rats, pretreatment; for Protection against heat, earlier work: males.
Description: The present invention centers on the concept of using opioids as a protective agent against heat shock. Earlier work studied how two opioids, deltorphin D and DADLE would affect molecular stress response to heat and survival. […] The current study focused on the use of deltorphin D to protect against heat stroke by administration before, after, or before and after, heat stroke. Heat stroke is defined as a rapid rise in blood pressure followed by a crash in pressure in response to overheating.
as §2

Data set [1] can be described thus: Change in body core temperature with injections. The data set is classed as in vivo, rat. The note with it: for Changes in Body Temperature, Temperature Day 1 / Changes in Body Temperature, Temperature Day 2: individual animals, 1 mg/kg i.v. tail injection, 1 mg/kg; for Effect on body temperature: summary of Table 3. Here is the method: as §2
Data set [2] is described as follows: Change in body core temperature with injections. Format: in vivo, rat. Particulars: for Effect on body temperature, earlier work: males.
In the next data set the test system is heat stroke. Kind of data set: Heat stroke induced by heating blanket in ketamine-anesthetized male rats. Format: in vivo, rat. The note with it: for Body temperature at blood pressure crash (onset of heat stroke): blanket 51.5° C. Here is the method:
Male rats were used in the study. The first rat weighed approximately 500 g and was anesthetized with ketamine and then wrapped in a heating blanket to raise its body temperature and induce heat stroke. The temperature and blood pressure of the anesthetized rat was monitored with a recording colonic temperature probe and a tail blood pressure cuff. When the symptoms of heat stroke were observed, 1.8 ml of 1.0 mg/ml pure deltorphin D was administered in the tail vein. The amount of deltorphin administered was based on the earlier hemorrhagic studies of Dr. Oeltgrn.
The second male rat was catherized with an arterial line two weeks previous to the next experiment to provide a means for more rapidly providing the deltorphin. The second rat weighed approximately 500 g and was anesthetized with ketamine and then wrapped in a heating blanket set at 51.5° C. to raise its body temperature and induce heat stroke. Prior to being wrapped in the heating blanket, a pre-treatment injection of 1.8 ml of 1.0 mg/ml pure deltorphin was provided through the catheter. The temperature and blood pressure of the anesthetized rat was monitored with a recording colonic temperature probe and blood pressure was monitored and recorded off of the arterial line. […] One hour later, another 1.8 ml of 1.0 mg/ml pure deltorphin was administered through the catheter. At that time, the rat was having difficulty moving.
A third male rat weighing approximately 200 g was catherized with an arterial line the day before the test. The third rat was anesthetized with ketamine and then wrapped in a heating blanket set at 51.5° C. to raise its body temperature and induce heat stroke. Prior to being wrapped in the heating blanket, a pre-treatment injection of 0.7 ml of 1.0 mg/ml pure deltorphin was provided through the catheter. The temperature and blood pressure of the anesthetized rat was monitored with a recording colonic temperature probe and blood pressure was monitored and recorded off of the arterial line. […] Fifteen minutes later, another 0.7 ml of 1.0 mg/ml pure deltorphin was administered through the catheter. The rat died approximately 75 minutes after the onset of heat stroke. […] Nonetheless, the third animal lived for 75 minutes. This survival rate is long when compared to the study reported at Chi WT, Kao TY, Lin MT. Neurosci Res. 1996 24:159-163 wherein rats in which heat stroke was induced lived only about 17 minutes after the onset of heat stroke and continuous perfusion of the animals with saline did nothing to extend their survival.

The test system of another data set is cerebral ischemia. The note with it: ischemia in mammals; cited from earlier work.
Where [3] appears, read: Female Brain, 1 mg/kg i.v. tail injections over 3 days, sacrificed 2 hours later.
[4] abbreviates: Male rats, individual animals, 1 mg/kg i.v. tail injection, 1 mg/kg.
Where [5] appears, read: second rat, 1.8 ml of 1.0 mg/ml before heating and one hour after onset, through catheter.

Values joined by “and” are separate entries in the source; they are usually repeats but may differ in a detail not shown here. Equal entries are not always repeated.

In the case of [D-Ala2-MePhe4-Glyol]enkephalin [DAGO], the “Restoration of mean arterial pressure after hemorrhage” value with hemorrhagic shock (bleeding non-lethal, Feuerstein et al. 1985) is “restore mean arterial pressure after hemorrhage”.

Regarding `CC(C)C[C@@H](NC(=O)[C@H](Cc1ccccc1)NC(=O)CNC(=O)[C@@H](C)NC(=O)[C@@H](N)Cc1ccc(O)cc1)C(=O)O` [DADLE, [D-Ala2-D-Leu5]enkephalin acetate (Tyr-D-Ala-Gly-Phe-D-Leu), reference compound], the “Effect on fallen mean arterial pressure” value with hemorrhagic shock (Summers et al. 2003) is given as “quickly reverses fallen mean arterial pressure”. In the data set on hemorrhagic shock (Summers et al. 2003), the “Survival of hemorrhagic shock” value is “increase survival of hemorrhagic shock”. Also, the “UBC measurement (Northern blot transcript intensity)” value in the data set on UbC (setting [3]) is on record as 0.7993; in the data set with UbC (Female Heart, 1 mg/kg i.v.), 0.5605; in the data set on UbC (Female Leg, 1 mg/kg i.v.), 0.8995; in the data set with UbC (Male Brain, 1 mg/kg i.v.), 2.356; in the data set with UbC (Male Heart, 1 mg/kg i.v.), 0.5837; with UbC (Male Leg, 1 mg/kg i.v.) it was 0.18. Also, the “Alteration of the molecular stress response” value in the data set with HSP 70 and ubiquitin is reported as “significant (p<0.05) alteration of the molecular stress response”. In addition, the “UBB measurement (Northern blot transcript intensity)” value with UbB (setting [3]) is on record as 1.688; with UbB (Female Heart, 1 mg/kg i.v.), 3.57; in the data set on UbB (Female Leg, 1 mg/kg i.v.) it was 2.76; in the data set with UbB (Male Brain, 1 mg/kg i.v.), 4.596; in the data set on UbB (Male Heart, 1 mg/kg i.v.), 0.7754; in the data set with UbB (Male Leg, 1 mg/kg i.v.), 0.6005. The “HSP measurement (Northern blot transcript intensity)” value in the data set on HSP70 (setting [3]) stood at 1.295; with HSP70 (Female Heart, 1 mg/kg i.v.), 0.8958; with HSP70 (Female Leg, 1 mg/kg i.v.) it was 0.884; in the data set with HSP70 (Male Brain, 1 mg/kg i.v.), 1.391; in the data set with HSP70 (Male Heart, 1 mg/kg i.v.), 0.5364; in the data set with HSP70 (Male Leg, 1 mg/kg i.v.) it was 0.3294. Also, the Sensitization to heat result in the data set with heat shock is listed as “sensitized male rats to heat”. In addition, the “Protection against heat, earlier work” value in the data set on heat shock was “did not show these effects”. Moreover, the “Changes in Body Temperature, Temperature Day 1” value in [1] (Female rats) is −2.4 and 0.45 and −1.85 and −0.85; in [2] (setting [4]), 2.36 and 1.82. Moreover, the “Changes in Body Temperature, Temperature Day 2” value in data set [1] (Female rats) is −3.45 and −1.65 and −1.45 and −0.35; in [2] (setting [4]), 1.55 and 0.2. In addition, the “Effect on body temperature” value in data set [1] was “raises body temperature”. Besides, the “Effect on body temperature, earlier work” value in [2] is reported as “did not show these effects”.

As to “Tyr-D-Ala-Phe-Ala-Asp-Val-Ala-Ser-Thr-Ile-Gly-Asp-Phe-Phe-His-Ser-Ile-NH2 (AFADVASTIGDFFHSI; N-terminal Tyr-D-, C-amide; printed: Ala-Phe-Ala-Asp-Val-Ala-Ser-Thr-Ile-Gly-Asp-Phe-Phe-His-Ser-Ile-) [deltorphin D, linear 17 amino acid opioid peptide synthesized on a commercial peptide synthesizer]”, the “Survival after heat stroke” value was “survived only a few minutes” in the data set on heat stroke (first rat, approx. 500 g, 1.8 ml of 1.0 mg/ml in the tail vein when symptoms of heat stroke were observed); “alive and healthy more than four weeks after the test” in the data set with heat stroke (setting [5]). In addition, the “Body temperature at blood pressure crash (onset of heat stroke)” value in the data set with heat stroke (second rat, approx. 500 g, pre-treatment 1.8 ml of 1.0 mg/ml through arterial catheter) was 41 °C; in the data set with heat stroke (third rat, approx. 200 g, pre-treatment 0.7 ml of 1.0 mg/ml through arterial catheter) it was 41 °C. Further, the “Ability to drink seven hours after the onset of heat stroke” value in the data set with heat stroke (setting [5]) is listed as “able to drink 5 ml of water out of a pipette”. Also, the “Ability to move two hours after the onset of heat stroke” value with heat stroke (setting [5]) is recorded as “able to move some on its own”. The “Survival time after the onset of heat stroke” value in the data set with heat stroke (third rat, approx. 200 g, 0.7 ml of 1.0 mg/ml before heating and fifteen minutes after onset, catheter installed the day before) is “approximately 75 minutes”. Besides, the “Survival relative to expected time in the absence of deltorphin administration” value in the data set with heat stroke (third rat, compared with about 17 minutes in Chi et al. 1996) is on record as “more than four times the expected time”. Moreover, the “Effect on neurological deficit and cerebral infarct volume” value in the data set on cerebral ischemia was “decreasing neurological deficit and cerebral infarct volume”. Further, the “UBC measurement (Northern blot transcript intensity)” value came out at 0.7664 with UbC (setting [3]); 0.8595 in the data set with UbC (Female Heart, 1 mg/kg i.v.); 0.2439 in the data set on UbC (Female Leg, 1 mg/kg i.v.); 1.694 with UbC (Male Brain, 1 mg/kg i.v.); 0.04345 in the data set with UbC (Male Heart, 1 mg/kg i.v.); 0.1339 in the data set with UbC (Male Leg, 1 mg/kg i.v.). In addition, the “Alteration of the molecular stress response” value with HSP 70 and ubiquitin was “significant (p<0.05) alteration of the molecular stress response”. The “UBB measurement (Northern blot transcript intensity)” value is 2.844 in the data set with UbB (setting [3]); 2.845 in the data set on UbB (Female Heart, 1 mg/kg i.v.); 2.803 with UbB (Female Leg, 1 mg/kg i.v.); 2.259 in the data set on UbB (Male Brain, 1 mg/kg i.v.); 0.5613 with UbB (Male Heart, 1 mg/kg i.v.); 2.319 in the data set on UbB (Male Leg, 1 mg/kg i.v.). Besides, the “HSP measurement (Northern blot transcript intensity)” value with HSP70 (setting [3]) is recorded as 0.02634; with HSP70 (Female Heart, 1 mg/kg i.v.), 1.27; with HSP70 (Female Leg, 1 mg/kg i.v.), 0.9001; in the data set with HSP70 (Male Brain, 1 mg/kg i.v.), 1.043; in the data set with HSP70 (Male Heart, 1 mg/kg i.v.) it was 0.3697; in the data set on HSP70 (Male Leg, 1 mg/kg i.v.), 0.6697. The Sensitization to heat entry with heat shock is given as “not”. The “Protection against heat, earlier work” value with heat shock is given as “protective against heat”. Besides, the “Changes in Body Temperature, Temperature Day 1” value in data set [1] (Female rats) is −0.7 (2×) and 0.2 and −1.6 and −1.5; in data set [1] (Male rats), −2.6 and −2.2 and −1.2 and −3.1. For the same compound, the “Changes in Body Temperature, Temperature Day 2” value in data set [1] (Female rats) was −1.4 and −1.7 and −1.6 and −1.9 and −2.8; in data set [1] (Male rats) it was −2.9 and −1.4 and −0.7 and −2.2. Also, the “Effect on body temperature” value in [1] is listed as “lowers body temperature significantly”. For the same compound, the “Effect on body temperature, earlier work” value in [2] is reported as “lowered body temperature”.
